Measurements as given in BindingDB's records for doi:10.1021/jm00384a016 (1987).

Biological target: T1, Adenosine receptor A1 (Rattus norvegicus, UniProt P25099)
T1 sequence (P25099 whole entry): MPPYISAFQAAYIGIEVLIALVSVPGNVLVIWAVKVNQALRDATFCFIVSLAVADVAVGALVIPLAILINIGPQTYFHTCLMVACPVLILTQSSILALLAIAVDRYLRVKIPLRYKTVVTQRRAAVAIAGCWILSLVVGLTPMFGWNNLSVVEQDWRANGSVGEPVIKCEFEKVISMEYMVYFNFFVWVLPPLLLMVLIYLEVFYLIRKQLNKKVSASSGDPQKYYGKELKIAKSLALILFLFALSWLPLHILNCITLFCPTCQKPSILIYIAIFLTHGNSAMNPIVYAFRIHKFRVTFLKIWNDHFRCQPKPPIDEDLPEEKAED
Assay: Binding affinity against adenosine A1 receptor in rat brain membrane using N6-[3H]cyclohexyladenosine

Ki: 0.37 µM
Compound: CC(Sc1nc(SC(C)C(N)=O)c2cnn(-c3ccccc3)c2n1)C(N)=O (stereo unspecified) [2-[6-(1-Carbamoyl-ethylsulfanyl)-1-phenyl-1H-pyrazolo[3,4-d]pyrimidin-4-ylsulfanyl]-propionamide]
